According to patent US20250064750A1, “LIPID AND COMPOSITION USED FOR DELIVERY” (JIANGSU HENGRUI PHARMACEUTICALS CO., LTD., priority 2021, published 2025):
Where two headings read alike, the source gives them in different places.

How the values were obtained:
[1] = pKa of cations in liposomal nanoparticles, TNS fluorescence analysis; assay type: physicochemical; conditions: pH at half-maximal TNS fluorescence
Experimental: (§1) Compound 1, compound 2, and comparative compound 1 were each dissolved in an ethanol solution, and the resulting solution was mixed with solutions of DSPC, cholesterol, and DMG-PEG in ethanol in a mole ratio of 50:10:38.5:1.5 to prepare an ethanol lipid solution. mRNA encoding a human growth factor was dissolved in a citrate buffer to prepare an aqueous mRNA solution. Liposomes were prepared by mixing the ethanol lipid solution and the aqueous mRNA solution by microfluidics with a weight ratio of total lipids to mRNA of about 20:1. The ethanol was removed by dialysis against PBS solution to give an mRNA-encapsulating liposomal nanoparticle composition.
The pKa of cations in the liposomal nanoparticles was determined using a fluorescence analysis based on 6-(p-toluidino)-2-naphthalenesulfonic acid sodium salt (TNS). 150 mM NaCl, 10 mM sodium phosphate, 10 mM sodium citrate, 10 mM sodium borate, and buffers of various pH levels ranging from 3 to 11.5 were prepared. A 300 μM TNS solution was prepared and added to the buffers. The lipid nanoparticles were added to the buffers of different pH levels and thoroughly mixed with them. Then the fluorescence intensity at an excitation wavelength of 325 nm and an emission wavelength of 435 nm was measured at room temperature using a fluorescence microplate reader. A fitting analysis of the fluorescence data was performed, with the pKa being the pH value at which half-maximal fluorescence intensity was produced.

luciferase protein = test: Tail vein injection in vivo mRNA delivery efficiency, whole-body luciferase fluorescence intensity (IVIS); set-up: species or system BALB/c mice; conditions: 0.5 mg/kg, 6 hours; for Fluorescence intensity level (p/s): whole body
Experimental: After 6 hours, the luciferase substrate was injected intraperitoneally into each mouse. Fluorescence images of the mice were captured using an IVIS small animal optical in vivo imaging system (PerkinElme), and the whole-body fluorescence intensity of the mice was recorded. The level of fluorescence intensity reflects the expression level of luciferase protein, i.e., the in vivo mRNA delivery efficiency of the liposomal nanoparticles. […] In FIG. 2, the fluorescence intensity refers to the whole-body fluorescence intensity of the mice recorded using the IVIS small animal optical in vivo imaging system. The level of fluorescence intensity reflects the expression level of luciferase protein, i.e., the in vivo mRNA delivery efficiency of the lipid nanoparticles.
With the liposomal nanoparticles to which comparative compound 1 corresponds as a control, the mouse tail vein injection in vivo mRNA delivery efficiency of the liposomal nanoparticles to which compound 1, compound 3, and compound 4 correspond was measured.

[2] = Liposome encapsulation efficiency, Quant-iT RiboGreen RNA assay; assay type: physicochemical; conditions: mRNA-encapsulating liposomal nanoparticles
Experimental: as §1
The liposome encapsulation efficiency was determined using a Quant-iT RiboGreen RNA assay kit.

[3] = Size and polydispersity index of liposomal nanoparticles by dynamic light scattering; assay type: physicochemical; conditions: mRNA-encapsulating liposomal nanoparticles; lipid:DSPC:cholesterol:DMG-PEG 50:10:38.5:1.5
Experimental: as §1
The size and polydispersity index (PDI) of the liposomal nanoparticles were determined using a Malvern Zetasizer Nano ZS in a 173° backscatter detection mode through dynamic light scattering.

interleukin 6 (IL-6) = test: In vivo immunogenicity: serum IL-6 concentration by ELISA after tail vein injection; set-up: species or system BALB/c mice; conditions: 0.5 mg/kg, 6 hours
Text: When exogenous substances enter the bodies of mammals, they induce an innate immune response, thereby promoting the production of cytokines. These exogenous substances can cause inflammatory reactions after entry into the body, which easily give rise to adverse reactions such as fever and edema in the body. The immunogenicity of lipid nanoparticles in the body was therefore evaluated by evaluating the concentration of a cytokine such as interleukin 6 (IL-6) in the blood of mice injected with lipid nanoparticles. Lower cytokine concentrations indicate that the lipid nanoparticles have lower immunogenicity, which means that they are biologically safer.
After 6 hours, blood was collected and serum was isolated. The IL-6 concentration in the serum was measured using a mouse IL-6 ELISA kit.

[4] = system: hepatocyte growth factor protein; test: In vivo mRNA delivery by intramuscular injection, hepatocyte growth factor protein expression by ELISA; set-up: species or system BALB/c mice; conditions: HGF mRNA lipid nanoparticles, 0.05 mg/kg; for Mean protein expression level: thigh muscle injection, muscle tissue after 24 hours
Experimental: After 24 hours, the muscle tissue at the injection site was collected, ground, and lysed. The expression level of hepatocyte growth factor protein (pg/mg), i.e., the hepatocyte growth factor protein amount to which the unit muscle tissue total protein amount corresponds, was then measured using an ELISA kit.
With the liposomal nanoparticles to which comparative compound 1 corresponds as a control, the intramuscular injection in vivo mRNA delivery efficiency of the liposomal nanoparticles to which compounds 1 and 2 correspond was measured.

in vivo = conditions: female, BALB/c, mouse, 0.5 mg/kg
Experimental: (§2) To evaluate the targeting in liposomal nanoparticles' in vivo delivery, liposomal nanoparticles with mRNA for expression of hepatocyte growth factor encapsulated therein were injected into the tail veins of 6-8 week old female BALB/c mice at a dose of 0.5 mg/kg. Plasma, liver, and spleen samples were collected at 1 hour, 2 hours, 4 hours, 6 hours, 24 hours, and 48 hours after injection of the lipid nanoparticles, and the concentrations of cationic lipid molecules in the plasma samples at the corresponding time points were determined by LC-MS mass spectrometry to evaluate the metabolism and in vivo clearance rate of the lipid nanoparticles. For the lipid nanoparticles to which each compound corresponds, at least 3 biological replicates were used, and the mean cationic lipid concentrations in the tissues were calculated.
(§3) Based on pharmacokinetic parameters, the half-lives of the cationic lipids in the tissues were calculated.

[5] = female, BALB/c, mouse, in vivo, 0.5 mg/kg
Experimental: as §2, §3

[6] = Tissue targeting: cationic lipid concentrations in liver and spleen after tail vein injection, LC-MS; assay type: in vivo, BALB/c mice; conditions: 0.5 mg/kg; for AUC(0-t): female, BALB/c, mouse, intravenous, HGF mRNA lipid nanoparticles
Experimental: Based on pharmacokinetic parameters, the total cationic lipid concentrations in the tissues 48 hours after administration were calculated to evaluate the distribution of lipid nanoparticles in the liver and spleen.

[7] = luciferase mRNA lipid nanoparticles, tail vein
[8] = luciferase mRNA lipid nanoparticles

Row | pKa [1] | Encapsulation efficiency (%) [2] [%] | PDI [3] | Size (nm) [3] [nm] | serum IL-6 concentration compared with comparative compound 1 (interleukin 6 (IL-6)) | concentration at 1 h (in vivo) [ng/mL] | half-life (in vivo; Half-life (hours) Liver) [min] | half-life (in vivo; Half-life (hours) Spleen) [min] | time at which completely cleared from plasma [5] [h] | AUC(0-t) ([6]; cationic lipid in liver, read-out: AUC48 h (h*μg/mL) Liver) [µg·h/mL] | AUC(0-t) ([6]; cationic lipid in spleen, read-out: AUC48 h (h*μg/mL) Spleen) [µg·h/mL] | concentration in the liver compared with comparative compound 1 ([6]; liver samples at the various time points (FIG. 3)) | concentration in the spleen compared with comparative compound 1 ([6]; spleen (FIG. 4)) | SMILES | Fluorescence intensity level (p/s) (luciferase protein; [7]) | tail vein injection in vivo mRNA delivery efficiency compared with comparative compound 1 (luciferase protein; [8]) | in vivo mRNA delivery via intramuscular injection compared with comparative compound 1 ([4]; 24 hours) | in vivo mRNA delivery via intramuscular injection compared with compound 2 ([4]; 24 hours) | Mean protein expression level [4] [pg/mg] | tail vein injection in vivo mRNA delivery efficiency compared with comparative compound 3 (so in the source) (luciferase protein; [8]) | protein expression level relative to lipid nanoparticles of comparative compound 1 (luciferase protein; tail vein) [times]
1 | 6.49 | 96.7 | 0.09 | 79.6 |  |  |  |  |  |  |  |  |  | CCCCCCCCCCCOC(=O)CCCCCN(CCO)CCCCCO[C@@H](C)C(=O)OC(CCCCCCCC)CCCCCCCC [Compound 3] | 4.28E+06 |  |  |  |  |  | 
2 | 6.3 | 97.3 | 0.07 | 74.8 | significantly lower |  |  |  |  |  |  |  |  | CCCCCCCCCCCOC(=O)CCCCCN(CCO)CCCCCOC(C)(C)C(=O)OC(CCCCCCCC)CCCCCCCC [Compound 4] | 6.78E+08 | significantly outperformed |  |  |  |  | 
3 | 6.65 | 94.6 | 0.08 | 87.8 | significantly lower | 1160 | 2050 | 1910 | 4 | 540 | 493 | significantly higher | significantly lower | CCCCCCCCCCCOC(=O)CCCCCN(CCO)CCCCCOCC(=O)OC(CCCCCCCC)CCCCCCCC [Compound 1] | 1.05E+09 | significantly better | significantly outperformed | significantly outperformed | 217.3 | significantly outperformed | 2.1
4 | 6.38 | 97.3 | 0.07 | 116.5 |  |  |  |  |  |  |  |  |  | CCCCCCCCCCCOC(=O)CCCCCN(CCO)CCOCCCCC(=O)OC(CCCCCCCC)CCCCCCCC [Compound 2] |  |  |  |  | 92.5 |  | 
